# Columns and labels:
# MAO-B = details: read-out: IC50 for inhibition of MAO-B activity; cited from earlier work
# [1] = system: single NaV channels in GH3 cells; assay: Cell-attached single-channel NaV current recordings in GH3 cells; assay type: cell-based, rat; details: n = 7
# Experimental: The composition of the external or bath solution [4-(2-hydroxyethyl)-1-piperazineethanesulfonic acid (HEPES)-buffered normal Tyrode’s solution] was as follows: 136.5 mM NaCl, 1.8 mM CaCl2, 5.4 mM KCl, 0.53 mM MgCl2, 5.5 mM glucose, and 5.5 mM HEPES–NaOH (pH 7.4). To measure K^+ currents (data not shown), we filled a patch pipette with an internal solution comprising 140 mM KCl, 1 mM MgCl2, 3 mM adenosine 5′-triphosphate disodium salt, 0.1 mM guanosine 5′-triphosphate disodium salt, 0.1 mM ethylene glycol tetraacetic acid, and 5 mM HEPES–KOH buffer (pH 7.2). To record the whole-cell INa, the K^+ in the internal solution was substituted with Cs^+, and the pH of the solution was adjusted to 7.2 by adding cesium hydroxide. In the single-channel experiments performed to record NaV currents, the pipette was filled with a Na^+-rich solution containing 136 mM NaCl, 0.53 mM MgCl2, 5.5 mM glucose, and 5.5 mM HEPES–NaOH (pH 7.2). The bath medium was a K^+-rich solution comprising 130 mM KCl, 10 mM NaCl, 3 mM MgCl2, 6 mM glucose, and 10 mM HEPES-KOH (pH 7.4). The solutions and culture media were generally filtered on the day of use by using sterile Acrodisc Syringe Filters containing a 0.2-μm Supor Membrane (Bio-Check; New Taipei City, Taiwan).
# Single-channel NaV currents induced by depolarizing pulses ranging from −100 to −10 mV were measured and subsequently analyzed using pCLAMP 10.7. The opening events of the channels were generally evaluated through multi-Gaussian adjustments of the distribution of amplitude across channels. Functional independence between channels was determined by comparing the observed stationary probabilities with the values calculated based on the binomial law. For dwell-time analyses, only a single channel was used in the patch-clamp experiment.
# To elucidate the mechanisms underlying the effects of SAF on the magnitude of INa, we investigated the actions of SAF and SAF plus MGB on single-channel NaV currents. This experiment was performed using the cell-attached configuration of the voltage-clamp test. Test cells were placed in K^+-rich solution, and the recording pipette was filled with Na^+-rich solution. SAF (10 μM) increased channel activity and decelerated current inactivation when the cells were exposed to depolarization stimuli ascending from –100 to –10 mV (rate of 0.1 Hz; Fig. 9A). Furthermore, the addition of MGB (10 μM) in the presence of 10 μM SAF reduced the probability of channel opening. […] Moreover, with the presence of 10 μM SAF, the mean open time of NaV channels was prolonged to […] (n = 7, P < 0.05) msec from a control value of 2.3 ± 0.3 msec (n = 7). […] Consistent with these findings, the mean open time of the NaV channel in the presence of 10 μM SAF (5.9 ± 1.1 ms; n = 7; P < 0.05) was longer than that in the control period (2.3 ± 0.3 ms, n = 7); the subsequent further addition of 10 μM MGB decreased the mean open time to 3.7 ± 0.7 ms (n = 7, P < 0.05) (Fig. 9B). […] MGB added during SAF exposure reversed the SAF-induced increase in NaV channel activity.
smiles,measurement,setting,value
"C[C@H](NCc1ccc(OCc2cccc(F)c2)cc1)C(N)=O [SAF, (S)-2-((4-((3-fluorobenzyl)oxy)benzyl)amino)propanamide]",IC50,MAO-B,[…]
same,channel activity (open-state probability) of NaV channels,"[1]; 10 μM SAF, control 0.027 ± 0.007",0.091 ± 0.006
same,mean open time of the NaV channel,"[1]; 10 μM SAF, control 2.3 ± 0.3 ms, second statement (Fig. 9B)",5.9 ± 1.1 ms
same,mean open time of NaV channels,"[1]; 10 μM SAF, control 2.3 ± 0.3 msec, first statement",6.5 ± 0.7 ms
same,amplitude of the single-channel current,"[1]; SAF 10 μM, control 2.01 ± 0.35 pA",2.03 ± 0.37 pA

# Reference: PMC10851555, “Safinamide, an inhibitor of monoamine oxidase, modulates the magnitude, gating, and hysteresis of sodium ion current” (BMC Pharmacology & Toxicology, 2024)
